Results on 7 compounds are retold here after PMC11447708, “Comprehensive Exploration of Bromophenol Derivatives: Promising Antibacterial Agents against SA and MRSA” (ACS Omega, 2024).

In general, MIC refers to the lowest concentration that inhibits growth of the organism. Lower therefore signals inhibition by little substance. In general, IC50 refers to the concentration at which inhibition is half-maximal. Low readings indicate greater potency, high ones weaker potency.

The test system of assay [1] is S. aureus ATCC 2793. Briefly: agar well diffusion, zone of inhibition. The class given is cell-based, Staphylococcus aureus. To be noted: for Diameter of zone inhibition on SA: Supplement S4, antibiotic standards; for inhibition zone diameter S. aureus: concentration (μg): 20 for 1-3, 10 for ampicillin and tobramycin, 30 for tetracycline. How it is done: (§1) The susceptibility test was measured in vitro by employing the agar well diffusion method.[20]S. aureus ATCC 2793 and P. aeruginosa ATCC 27853 strains were used in this experiment. A suspension of the test organism was prepared in nutrient broth by overnight culture for 24 h at 37 °C and 7.0 pH. The agar plate surface was inoculated by spreading a volume of the microbial inoculum over the entire agar surface. Then, a hole with a diameter of 6 to 8 mm was punched aseptically with a sterile tip, and a volume (20 μL) of the tested solution at the desired concentration was introduced into the well. Then, agar plates were incubated under suitable conditions depending upon the test microorganism. After incubation, the plates were examined and the diameters of the zone of complete inhibition were observed.

The subject of assay [2] is MRSA. Briefly: agar well diffusion, zone of inhibition. The class given is cell-based, Staphylococcus aureus. To be noted: for Diameter of zone inhibition on MRSA: Supplement S4, antibiotic standards; for inhibition zone diameter MRSA: concentration (μg): 20 for 1-3, 10 for ampicillin and tobramycin, 30 for tetracycline. How it is done: Staphylococcus aureus ATCC 2793, Pseudomonas aeruginosa ATCC 27853, and P. aeruginosa PA14 were activated, cultured, and stored in a refrigerator at −25 °C in the Laboratory of Biotechnology, Faculty of Chemical, Da Nang University of Science and Technology, The University of Da Nang. The MRSA antibiotic-resistant strain was isolated, identified,[17] and kindly provided by Dr. Ngo Thai Bich Van, Faculty of Chemical, Da Nang University of Science and Technology, The University of Da Nang.
as §1
A general note: A growth-free zone around the sample is the usual read-out of agar diffusion tests.

For assay [3], the system named is P. aeruginosa ATCC 27853. Briefly: agar well diffusion, zone of inhibition. The format is cell-based, Pseudomonas aeruginosa. To be noted: for Diameter of zone inhibition on PA: Supplement S4, antibiotic standards; for inhibition zone diameter P. aeruginosa: concentration (μg): 20 for 1-3, 10 for ampicillin and tobramycin, 30 for tetracycline. How it is done:
as §1

The subject of assay [4] is S. aureus. Briefly: microbroth dilution assay (MIC, resazurin). The class given is cell-based, Staphylococcus aureus. To be noted: 18 h, 37 °C; for MIC: Staphylococcus aureus. How it is done: (§2) The antibacterial efficacy of the chosen compounds was assessed through the microbroth dilution assay conducted in 96-well culture plates.[21] A stock solution with a concentration of 20 mg/mL was prepared in dimethyl sulfoxide (DMSO). Subsequently, autoclaved nutrient broth (100 μL) was introduced into the culture plate wells, with the initial row of the microtiter plate receiving 100 μL of the test material. 2-fold serial dilutions of the test compounds were then meticulously executed. To serve as an indicator, 20 μL of 2× resazurin solution was added to each well. Finally, 10 μL of the bacterial suspension was incorporated into each well, yielding a final concentration of 5 × 10^6 CFU/mL. The experiment was conducted in duplicate, and the plates were incubated at 37 °C. After 18 h, the plates were scrutinized for any change in color indicative of bacterial growth.
A general note: Dilution methods test growth across graded concentrations, often in twofold steps.

Assay [5] deals with P. aeruginosa. The assay can be described thus: microbroth dilution assay (MIC, resazurin). The format is cell-based, Pseudomonas aeruginosa. To be noted: 18 h, 37 °C; for MIC: Pseudomonas aeruginosa. The method, then:
as §2

For assay [6], the system named is P. aeruginosa ATCC 27853. The assay can be described thus: biofilm formation inhibition, crystal violet assay. The format is cell-based, Pseudomonas aeruginosa. To be noted: mean ± SD, n = 3. The method, then: Biofilm formation was evaluated utilizing the crystal violet assay.[22] The P. aeruginosa ATCC 27853 strain was used in this experiment. The bacterial attachment was initiated by inoculating the culture medium with approximately 10^7 CFU/mL in polystyrene 96-well plates, followed by incubation at 37 °C for 2 h in aerobic conditions. Subsequent to the attachment phase, the medium was carefully aspirated, and the 96-well plates were rinsed with phosphate-buffered saline (PBS) (pH 7.0) to eliminate unattached cells. The fresh medium, along with tested compounds, was then introduced to assess the inhibitory impact on biofilm formation. Following an 18 h incubation at 37 °C, a crystal violet (CV) assay was conducted. The well plate was washed with PBS to eliminate unattached cells, and a 1% CV solution was added, allowing for a 30 min incubation at room temperature. After this period, the well plate underwent three PBS washes, and absolute ethanol was added, incubating for 15 min. Following the transfer of the stained solution to a new well plate, the absorbance was measured at 595 nm.

Assay [7] relates to pyocyanin production in the PA14 strain. Briefly: pyocyanin inhibition assay (chloroform extraction). The format is cell-based, Pseudomonas aeruginosa. To be noted: half of the MIC, 12 h, mean ± SD, n = 3. The method, then: Following the specified incubation period, the cultures underwent centrifugation at 10,000 rpm for 10 min, leading to the collection of the supernatant. Subsequently, 3 mL of chloroform was added to 5 mL of the supernatant, and the mixture was vortexed for 20 s. After centrifugation at 5000 rpm for 10 min, the resulting blue layer at the bottom was transferred to a new tube. To each tube, 2 mL of 0.2 M HCl was added and vortexed for 20 s. The sample underwent subsequent centrifugation for 2 min at 5000 rpm, and 1 mL of the resulting pink layer was transferred to cuvettes. A blank was established using 0.2 M HCl. Spectrophotometric measurements were carried out at 520 nm.

Assay [8] deals with P. aeruginosa ATCC 27853. Briefly: swarming motility. The format is cell-based, Pseudomonas aeruginosa. To be noted: 24 h at 37 °C; for migration distance (mm): swarming, control 100 mm. How it is done:
The analysis was performed in Petri dishes with the LB minimal medium supplemented with 0.2% glucose and 0.5% agar, as described by Kearns.[24] Tested compounds were added to the motility agar at the desired concentration. Aliquots (1.0 μL) were taken from P. aeruginosa ATCC 27853 overnight cultures and spotted in the center of each well, and the migration zones were measured after 24 h of incubation at 37 °C. The inhibition rate was calculated as follows: [drawing 1] where Dtreated and Dcontrol are the migration distances in the treated and control samples, respectively.

Assay [9] relates to HEK-293 cells. Briefly: AlamarBlue cell viability assay. The class given is cell-based. To be noted: Homo sapiens, HEK293, 24 h exposure. How it is done:
HEK-293 cells were cultured in DMEM containing 25 mM glucose, 10% heat-inactivated fetal bovine serum (FBS), 100 U/mL penicillin, and 100 μg/mL streptomycin. Cells were incubated at 37 °C in a humidified atmosphere containing 95% air and 5% CO2.
[…] Untreated groups were set as the control (100% cell viability). On the 24th, cells were treated with the Invitrogen AlamarBlue cell viability reagent for an additional 2 h. Optical density (OD) values (at wavelengths of 570 and 600 nm) were then recorded. The percentage of cell viability was calculated according to the protocol provided by the manufacturer.
For orientation: The colour change of resazurin is a common sign of viable cells or microbes.

Assay [10] has as its system S. aureus. Set-up: method as in Liu et al.[7]. To be noted: bromo benzenediol derivatives; ref Liu et al.[7]; cited from earlier work.
Assay [11] has as its system P. aeruginosa. Set-up: method as in Liu et al.[7]. To be noted: bromo benzenediol derivatives; ref Liu et al.[7]; cited from earlier work.
Assay [12] has as its system Staphylcoccus epidermidis. Set-up: method as in Liu et al.[7]. To be noted: ref Liu et al.[7]; cited from earlier work.

Converted amounts (≈) assume the structure as drawn. Where two headings read alike, the source gives them in different places.

On to `CC1(C)S[C@@H]2[C@H](NC(=O)[C@H](N)c3ccccc3)C(=O)N2[C@H]1C(=O)O` [ampicillin], for which, in assay [1], the “Diameter of zone inhibition on SA” value came to 14.5 mm and the “inhibition zone diameter S. aureus” value is on record as 16 mm. Moreover, in assay [2], the “Diameter of zone inhibition on MRSA” value was found to be 15.5 mm and the “inhibition zone diameter MRSA” value is 18 mm. In assay [3], the “Diameter of zone inhibition on PA” value was determined as 0 mm and the “inhibition zone diameter P. aeruginosa” value is listed as “no observable zone diameter”. Moreover, in assay [4], the “MIC S. aureus” value came to 10 µg/mL (≈ 28.6 µM) and the MIC came to 10 µg/mL (≈ 28.6 µM). In addition, the “MIC P. aeruginosa” value in [5] is “inactive”.

Take `CC(=O)c1c(O)ccc(Br)c1O` [compound 2, 3-Bromo-2,6-dihydroxyacetophenone]: the “inhibition zone diameter S. aureus” value in [1] was found to be 29 mm. The “inhibition zone diameter MRSA” value in assay [2] is recorded as 30 mm. The “inhibition zone diameter P. aeruginosa” value in assay [3] was 1 mm. The MIC in assay [4] was determined as 12 µg/mL (≈ 51.9 µM); in assay [5] it was 780 µg/mL (≈ 3380 µM). The “biofilm formation inhibition (%)” value in assay [6] is recorded as 14%. Moreover, the “pyocyanin production inhibition (%)” value in assay [7] is reported as 52%. Further, in [8], the “swarming motility inhibition rate (%)” value came out at 86.5%. In assay [8], the “migration distance (mm)” value came to 13.5 mm. Also, in assay [9], the IC50 worked out at 31.1 µM.

As to `CC(=O)c1cc(Br)c(O)c(Br)c1O` [compound 3, 3,5-Dibromo-2,4-dihydroxyacetophenone], the “inhibition zone diameter S. aureus” value in assay [1] amounted to 12 mm. Also, the “inhibition zone diameter MRSA” value in [2] is 20 mm. Further, the “inhibition zone diameter P. aeruginosa” value in [3] turned out to be 1 mm. In addition, the lowest concentration to inhibit growth in assay [4] (MIC) was 390 µg/mL (≈ 1260 µM). The same compound displayed an MIC in assay [5] of 780 µg/mL (≈ 2520 µM). In addition, the “biofilm formation inhibition (%)” value in assay [6] is recorded as 14%. Also, the “pyocyanin production inhibition (%)” value in assay [7] was found to be 38%. Also, in [8], the “swarming motility inhibition rate (%)” value worked out at 86.5% and the “migration distance (mm)” value turned out to be 13.5 mm. The IC50 in [9] was above 32 µM.

As to `Oc1cc(Cc2cc(O)c(O)c(Br)c2Br)c(Br)c(Br)c1O` [compound 7, 4,4′-methylenebis(5,6-dibromo-1,2-benzenediol)], the “MIC S. aureus” value in assay [10] was 140 µg/mL (≈ 256 µM). Besides, the “MIC P. aeruginosa” value in assay [11] was 140 µg/mL (≈ 256 µM).

Consider `Oc1cc(COCc2cc(O)c(O)c(Br)c2Br)c(Br)c(Br)c1O` [compound 8, bis(2,3-dibromo-4,5-dihydroxybenzyl)ether], for which, in [10], the “MIC S. aureus” value was 70 µg/mL (≈ 121 µM). The “MIC P. aeruginosa” value in assay [11] is 70 µg/mL (≈ 121 µM). In assay [12], the “MIC on Staphylcoccus epidermidis” value was 35 µg/mL (≈ 60.6 µM).

For `CN(C)[C@@H]1C(O)=C(C(N)=O)C(=O)[C@@]2(O)C(O)=C3C(=O)c4c(O)cccc4[C@@](C)(O)[C@H]3C[C@@H]12` [tetracycline], in assay [1], the “Diameter of zone inhibition on SA” value worked out at 9.75 mm and the “inhibition zone diameter S. aureus” value turned out to be 14 mm. Moreover, in [2], the “Diameter of zone inhibition on MRSA” value is recorded as 10.25 mm and the “inhibition zone diameter MRSA” value was 12 mm. In addition, in assay [3], the “Diameter of zone inhibition on PA” value was found to be 10.5 mm and the “inhibition zone diameter P. aeruginosa” value is on record as 10 mm. For the same compound, in [4], the “MIC S. aureus” value worked out at 30 µg/mL (≈ 67.5 µM) and 30 µg/mL (≈ 67.5 µM) was the least that counted as inhibitory (MIC). For the same compound, in assay [5], the “MIC P. aeruginosa” value turned out to be 70 µg/mL (≈ 158 µM) and 70 µg/mL (≈ 158 µM) was the least that counted as inhibitory (MIC).

For the compound `NC[C@H]1O[C@H](O[C@H]2[C@H](O)[C@@H](O[C@H]3O[C@H](CO)[C@@H](O)[C@H](N)[C@H]3O)[C@H](N)C[C@@H]2N)[C@H](N)C[C@@H]1O` [tobramycin], in assay [1], the “inhibition zone diameter S. aureus” value is reported as 15 mm. In [2], the “Diameter of zone inhibition on MRSA” value was 5.5 mm and the “inhibition zone diameter MRSA” value amounted to 12 mm. Besides, in [3], the “Diameter of zone inhibition on PA” value was 5.5 mm and the “inhibition zone diameter P. aeruginosa” value worked out at 15 mm. Besides, in assay [4], the “MIC S. aureus” value turned out to be 25 µg/mL (≈ 53.5 µM) and the minimal inhibitory concentration (MIC) stood at 25 µg/mL (≈ 53.5 µM). Further, in [5], the “MIC P. aeruginosa” value turned out to be 15 µg/mL (≈ 32.1 µM) and the MIC came out at 15 µg/mL (≈ 32.1 µM).
